# Test results published in patent US20130316965A1, “IDRABI[…] THE TREATMENT OF PULMONARY EMBOLISM AND FOR THE SECONDARY PREVENTION OF VENOUS THRO[…]” (priority 2011, published 2013).
# Assays:
# [1] = system: patients with symptomatic pulmonary embolism with or without symptomatic deep venous thrombosis; assay: CASSIOPEA (EFC6034) phase III clinical trial: symptomatic recurrent PE/DVT (efficacy); type: in vivo, human
# Description: Patients with confirmed symptomatic PE with or without acute symptomatic DVT are eligible for this trial. Treatment with a therapeutic dose of any LMWH or UFH or fondaparinux is allowed only within the 36 hours immediately preceding randomization. Randomization is performed as soon as the diagnosis of PE (and DVT if concomitant suspected symptomatic DVT) is confirmed.
# (§1) A blinded central and independent adjudication committee (CIAC) assesses PE (and DVT when applicable), all episodes of locally confirmed or doubtful PE/DVT recurrences, clinically relevant bleedings and deaths. Adjudication results are the basis for the final analyses.
# Patients in the 3-month stratum have an additional 13-week observational period after cessation of study treatment. Patients in the 6-month stratum have a 13-week up to 26-week observational period.
# Injections of SSR126517E (or its placebo) is started 12 h after the last post-randomization enoxaparin administration. SSR126517E (or its placebo) is administered s.c. once-weekly for a period of 3 or 6 months. All patients receive a first 0.5 ml injection (3.0 mg in the SSR126517E group). The following injections are also 0.5 ml, except in patients with severe renal insufficiency (defined as creatinine clearance <30 mL/min), who decrease to a dosage of 0.3 ml (1.8 mg in the SSR126517E group).
# The primary efficacy outcome is symptomatic recurrent PE/DVT (fatal or not), as validated by the CIAC, within 99 days for patients from both strata (3- and 6-month treatments).
# A secondary efficacy outcome for patients in the 6-month stratum is symptomatic recurrent PE/DVT, as validated by the CIAC, within 190 days.
# There are 2 additional efficacy outcomes: • the time to first symptomatic recurrent PE/DVT (fatal or non fatal) within the patient's treatment period, i.e. a combined analysis of the 3-and 6-month strata patients; • the separate components of the efficacy outcomes within 99 days (all patients) and within 190 days (6-month stratum patients only).
# The definitions to confirm a suspected symptomatic episode of recurrent PE/DVT are as follows:
# Efficacy analyses are performed on the—All-randomized—population (patients with a patient number and an allocated treatment number recorded in the IVRS database).
# The secondary efficacy outcome (VTE recurrence within 190 days) for patients in the 6-month stratum is analyzed using the same method and applying the same non-inferiority margin.
# Time to first symptomatic recurrent PE/DVT within the patient's study treatment period for all patients is analyzed using Cox's proportional hazards model, stratified on intended treatment duration.
# [2] = system: patients with symptomatic pulmonary embolism with or without symptomatic deep venous thrombosis; assay: CASSIOPEA (EFC6034) phase III clinical trial: clinically relevant bleeding (safety); type: in vivo, human
# Description: According to the instant invention, the term “bleedings” designates any clinically relevant bleeding (i.e. major or clinically relevant non-major hemorrhage).
# According to the instant invention, the term “major bleedings” designates any of the following clinical situations: • bleeding associated with a fall in hemoglobin of 2 g per deciliter or more, • bleeding that led to a transfusion of 2 or more units of packed red cells or whole blood (a red cell unit being defined as the quantity of red cells obtained from or corresponding to approximately 500 ml of whole blood), • bleeding that involved a critical organ (intracranial, intraocular, intraspinal, retroperitoneal or pericardial), • bleeding that contributed to death.
# as §1
# The principal safety outcome is any clinically relevant bleeding as classified by the CIAC (i.e. major bleeding and other clinically relevant non-major bleeding).
# Bleeding analyses are also performed on the—All-randomized—population. Other safety analyses are performed on the—All-treated—population.
# Rates of clinically relevant bleedings are calculated in each treatment group at 3 months (99 days) and 6 months (190 days) and compared between treatment groups using a Mantel-Haenszel chi-square stratified on intended treatment duration. Cumulative incidences of clinically relevant bleedings during the combined 3-month and 6-month period and up to the end of study are described by treatment group using the Kaplan Meier method.
# [3] = system: patients with symptomatic pulmonary embolism with or without symptomatic deep venous thrombosis; assay: CASSIOPEA (EFC6034) phase III clinical trial: deaths; type: in vivo, human; conditions: overall
# Description: as §1
# [4] = system: patients with symptomatic pulmonary embolism with or without symptomatic deep venous thrombosis; assay: CASSIOPEA (EFC6034) phase III clinical trial: benefit-risk assessment (PE, DVT or major bleeding composite); type: in vivo, human; conditions: Randomized population; composite endpoint
# Description: Tables 13 and 14 show the incidence of pulmonary embolism, deep venous thrombosis or major bleedings (composite endpoint) in the randomized population in the treatment phase (3-month or 6-month treatment with idrabiotaparinux) and up to the end of the study (assessment at 12 months).
# [5] = system: patients with pulmonary embolism; conditions: human, in vivo; cited from earlier work
# [6] = Randomized population, All patients
# [7] = Randomized population, Patients with VKA beyond D99/D190
# [8] = Randomized population, Patients with no VKA beyond D99/D190
# [9] = Randomized population, or death for which PE could not be ruled out
# [10] = combined 3-month and 6-month periods, time-to-event analysis (Kaplan-Meier)
# [11] = treatment period plus 3 to 6-month post-treatment follow-up (up to end of study)
smiles,measurement,setting,value
"CC(=O)CC(c1ccccc1)c1c(O)c2ccccc2oc1=O (stereo not drawn) [Warfarin, warfarin, reference compound]",DVT only within 190 days from randomization: Patients with event,[1]; 6-month stratum,17 (1.3%) n (%)
same,Non-fatal PE within 190 days from randomization: Patients with event,[1]; 6-month stratum,10 (0.8%) n (%)
same,Symptomatic recurrent PE/DVT (fatal or not) from randomization to end of study: Patients with event,"[1]; 6-month stratum, All patients",76 (6.0%) n (%)
same,Symptomatic recurrent PE/DVT (fatal or not) from randomization to end of study: Patients with event,"[1]; 6-month stratum, Patients with VKA beyond D190",37 (9.1%) n (%)
same,Symptomatic recurrent PE/DVT (fatal or not) from randomization to end of study: Patients with event,"[1]; 6-month stratum, Patients with no VKA beyond D190",39 (4.5%) n (%)
same,Fatal PE within 190 days from randomization: Patients with event,"[1]; 6-month stratum, or death for which PE could not be ruled out",9 (0.7%) n (%)
same,Patients who experienced DVT up to Day 190,"[1]; 6-month stratum, up to Day 190",1.3%
same,DVT only up to the end of study: Patients with event,[1]; Randomized population,31 (1.9%) n (%)
same,DVT only within 99 days from randomization: Patients with event,[1]; Randomized population,18 (1.1%) n (%)
same,Non-fatal PE up to the end of study: Patients with event,[1]; Randomized population,41 (2.6%) n (%)
same,Non-fatal PE within 99 days from randomization: Patients with event,[1]; Randomized population,9 (0.6%) n (%)
same,Symptomatic recurrent PE/DVT (fatal or not) within 190 days from randomization: Patients with event,[1]; Randomized population in the 6-month stratum,36 (2.8%) n (%)
same,Symptomatic recurrent PE/DVT (fatal or not) from D100/D191 to end of study: Patients with event,[1]; [6],47 (3.1%) n (%)
same,Symptomatic recurrent PE/DVT (fatal or not) from randomization to end of study: Patients with event,[1]; [6],97 (6.1%) n (%)
same,Symptomatic recurrent PE/DVT (fatal or not) from D100/D191 to end of study: Patients with event,[1]; [7],32 (6.6%) n (%)
same,Symptomatic recurrent PE/DVT (fatal or not) from randomization to end of study: Patients with event,[1]; [7],45 (9.3%) n (%)
same,Symptomatic recurrent PE/DVT (fatal or not) from D100/D191 to end of study: Patients with event,[1]; [8],15 (1.5%) n (%)
same,Symptomatic recurrent PE/DVT (fatal or not) from randomization to end of study: Patients with event,[1]; [8],52 (4.6%) n (%)
same,Fatal PE up to the end of study: Patients with event,[1]; [9],25 (1.6%) n (%)
same,Fatal PE within 99 days from randomization: Patients with event,[1]; [9],16 (1.0%) n (%)
same,Symptomatic recurrent PE/DVT (fatal or not) within 99 days from randomization: Patients with event,"[1]; Randomized population, within 99 days",43 (2.7%) n (%)
same,Cumulative incidence of symptomatic recurrent PE/DVT at Day 99,[1]; [10],2.7%
same,Cumulative incidence of symptomatic recurrent PE/DVT at Day 190,[1]; [10],3.4%
same,Cumulative incidence rate of symptomatic recurrent PE/DVT at Day 360,[1]; [11],7.2%
same,Patients who experienced DVT up to Day 99,[1]; up to Day 99,1.1%
same,Patients who experienced DVT up to the end of study,[1]; up to the end of study,1.9%
same,Patients who experienced non-fatal PE up to the end of study,[1]; up to the end of study,2.6%
same,Clinically relevant bleedings up to Day 190,[2]; 6-month stratum,8.1%
same,Fatal bleeding within 190 days from randomization: Patients with event,[2]; 6-month stratum,5 (0.4%) n (%)
same,Intracranial haemorrhage (fatal or not) within 190 days from randomization: Patients with event,[2]; 6-month stratum,6 (0.5%) n (%)
same,Major bleeding within 190 days from randomization: Patients with event,[2]; 6-month stratum,36 (2.8%) n (%)
same,Patients who experienced a major bleeding up to Day 190,[2]; 6-month stratum,2.8%
same,Any clinically relevant bleeding within 99 days from randomization: Patients with event,[2]; Randomized population,106 (6.6%) n (%)
same,Fatal bleeding within 99 days from randomization: Patients with event,[2]; Randomized population,6 (0.4%) n (%)
same,Intracranial haemorrhage (fatal or not) within 99 days from randomization: Patients with event,[2]; Randomized population,7 (0.4%) n (%)
same,Major bleeding within 99 days from randomization: Patients with event,[2]; Randomized population,39 (2.4%) n (%)
same,Cumulative incidence of clinically relevant bleeding at Day 99,[2]; [10],6.7%
same,Cumulative incidence of clinically relevant bleeding at Day 190,[2]; [10],9.1%
same,Cumulative incidence rate of clinically relevant bleeding at Day 360,[2]; [11],10.0%
same,Incidence of clinically relevant bleeding up to Day 99,[2]; up to Day 99,6.6%
same,Patients who experienced a major bleeding up to Day 99,[2]; up to Day 99,2.4%
same,Patients who died on study,[3],5.3%
same,"PE, DVT or major bleeding in the combined 3-month and 6-month period: Patients with event",[4],98 (6.1%) n (%)
same,"PE, DVT or major bleeding up to the end of study: Patients with event",[4],150 (9.4%) n (%)
CO[C@H]1O[C@H](COS(=O)(=O)O)[C@@H](O[C@@H]2O[C@@H](C(=O)O)[C@@H](O[C@H]3O[C@H](COS(=O)(=O)O)[C@@H](O[C@@H]4O[C@H](C(=O)O)[C@@H](O[C@H]5O[C@H](COS(=O)(=O)O)[C@@H](OC)[C@H](OC)[C@H]5OC)[C@H](OC)[C@H]4OC)[C@H](OS(=O)(=O)O)[C@H]3OS(=O)(=O)O)[C@H](OC)[C@H]2OC)[C@H](OS(=O)(=O)O)[C@H]1OS(=O)(=O)O [idraparinux],Outcome in patients with pulmonary embolism,[5],apparent failure
